What all share (test): NCI anticancer screen, dose series, 48 h
Test [1] concerns CCRF-CEM leukemia.
Test [2] relates to HCT-15 colon.
Test [3] deals with HL-60(TB) leukemia.
The test system of test [4] is HT29 colon.
In test [5] the test system is NCI-H23 lung.
The test system of test [6] is OVCAR-8 ovarian.
The test system of test [7] is SK-MEL-28 melanoma.
Test [8] relates to HCC-2998 colon.
The test system of test [9] is HOP-92 NSCLC.
For test [10], the system named is HS 578T breast.

SMILES strings stand for the structures.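 Method: 48-hour compound exposure of cells in 96-well plates, five concentrations, linear interpolation of endpoints. GI50 = concentration required for 50% inhibition of growth. The concentration for full growth arrest is given as TGI.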

In the case of `CN(C)c1nc(N(C)C)nc(N(C)CN(C)c2ccc(Cl)cc2)n1`, the TGI in test [1], in test [2], in test [3], in test [4], in test [5] and in test [6] was above 100 µM throughout. The TGI in test [7] was above 100 µM.
For the molecule `CN(c1cc2ncc(=O)[nH]c2cc1NC(N)=NCc1ccc(Cl)cc1)C1CCCCC1`, the GI50 was 6.33 µM in [1]; 1.73 µM in test [8]; 8.27 µM in test [2]; 5.36 µM in test [3]; 0.793 µM in [9]; 6.53 µM in [10]. Further, the GI50 is 5.03 µM in test [4], 8.25 µM in [5], 10.4 µM in test [6] and 6.71 µM in [7]. Moreover, the TGI is 15.6 µM in test [1]; 5.29 µM in test [8]; 15.4 µM in test [2]; 12.7 µM in [3]; 5.95 µM in test [9]; 16 µM in test [10]. Also, the TGI in test [4] is 14.1 µM; in test [5], 15.9 µM; in [6], 23.3 µM; in test [7], 13.7 µM.
Regarding `COc1ccc2c(c1)CCN=C2Cc1cc(OC)c(OC)cc1CCCl`, the TGI was above 100 µM in test [1]; above 100 µM in test [8]; above 100 µM in test [9]; 81.7 µM in test [10]; above 100 µM in [4]; above 100 µM in [5]. The TGI in test [6] and in [7] was above 100 µM each time.
Take `Cc1nc2c(n1C)C(=O)c1nc(CBr)[nH]c(=O)c1C2=O`: the TGI in [1], in test [2], in [3], in [9], in test [4] and in test [5] was above 100 µM in each case. Moreover, the TGI in test [6] and in test [7] was above 100 µM each time.
For the molecule `O=C(O)c1cc(=O)[nH]c(SCc2ccccc2)n1`, the TGI in test [2], in [3], in test [9], in test [4], in test [5] and in test [6] was above 100 µM each time. The TGI in test [7] was above 100 µM.
On to `CC(=O)Oc1c(C)c2c(O)c3c1C1=C(OCOC1=C(C)C3=O)/C(C)=C\C(C)(O)C(O)C(C)C(O)C1C(=O)OC(C(C)C1O)C(C)(O)/C=C/C=C(C)C(=O)N2` (stereo unspecified), for which the TGI in test [1] was 61.4 µM; in [8] it was above 100 µM; in [2], above 100 µM; in [3], 7.3 µM; in test [9], above 100 µM; in [10], above 100 µM. Also, the TGI in [4], in [5], in test [6] and in test [7] was above 100 µM in each case.
Regarding `O=Cc1cc([N+](=O)[O-])no1`, the TGI in [1], in test [8], in test [2], in test [3], in test [9] and in [10] was above 100 µM each time. Also, the TGI in test [4] was 61.6 µM; in test [5], above 100 µM; in test [6], above 100 µM; in test [7], above 100 µM.
Take `Cc1ccc(NP(=O)(Oc2ccccc2)N(CCCl)CCCl)cc1` (stereo unspecified): the TGI in [8], in test [2], in [3], in test [9], in test [4] and in test [5] was above 100 µM each time. The TGI in test [6] and in test [7] was above 100 µM each time.
With `O=C(C=P(c1ccccc1)(c1ccccc1)c1ccccc1)c1cccc(-c2cccc([N+](=O)[O-])c2)c1`, the TGI in test [1] is 7.63 µM; in [8] it was above 100 µM; in test [2], 21.1 µM; in [3], 4.82 µM; in test [9], 5.77 µM; in test [10], above 100 µM. The TGI is 4.17 µM in [4], 26.4 µM in test [5], above 100 µM in test [6] and 10.9 µM in [7].
Turning to `c1ccc(C2CC(c3cccc(Nc4ccncc4)c3)=NN2c2ccccc2)cc1` (stereo unspecified), the GI50 is 2.09 µM in [1]; 1.58 µM in [8]; 1.59 µM in [2]; 1.65 µM in test [3]; 1.45 µM in [9]; 1.55 µM in test [10]. Moreover, the GI50 was 1.69 µM in test [4], 1.73 µM in test [5] and 1.76 µM in [7]. The TGI was 5.68 µM in test [1]; 2.96 µM in test [8]; 3.18 µM in test [2]; 3.73 µM in [3]; 2.95 µM in test [9]; 3.47 µM in [10]. Also, the TGI in [4] came to 3.49 µM; in [5] it was 3.35 µM; in test [7] it was 3.19 µM.
As to `O=S1(=O)C(c2ccccc2)C(N2CCCCC2)C1C1CC2c3ccccc3C1c1ccccc12` (stereo unspecified), the TGI is above 24.3 µM in test [1]; above 100 µM in test [2]; above 100 µM in test [3]; above 100 µM in [9]; above 100 µM in test [10]; above 100 µM in [4]. Besides, the TGI in test [5], in test [6] and in test [7] was above 100 µM in each case.
As for `CSc1nc(NC2OCC(OC(C)=O)C(OC(C)=O)C2OC(C)=O)c(N=C(C)C(C)=O)c(=O)[nH]1` (stereo unspecified), the TGI in test [1], in test [2], in [3], in test [9], in test [4] and in [5] was above 100 µM throughout. Also, the TGI in test [6] and in test [7] was above 100 µM in each case.
On to `OC1(c2ccc(Cl)cc2)c2c(ccc3c2OCO3)C2=NCCN21` (stereo unspecified), for which the TGI in test [1] is above 100 µM; in [2], above 100 µM; in [3], above 100 µM; in test [9], 73.5 µM; in test [10], 76.7 µM; in test [4], 91.5 µM. The TGI in [5] is above 100 µM; in test [6], above 100 µM; in [7], 34.6 µM.
`CCOC(=O)C[C@@H]1C2(C=C[C@@]13CO3)OCC(C)(C)CO2`: the TGI in test [1], in test [8], in test [2], in [3], in test [9] and in test [10] was above 100 µM each time. Besides, the TGI in [4], in test [5], in [6] and in test [7] was above 100 µM in each case.
Turning to `CCN(CC)CCCC(C)Nc1ccnc2cc3ccccc3cc12` (stereo unspecified), the TGI in test [1] was above 100 µM; in test [2] it was 14.4 µM; in [3] it was 75.9 µM; in test [9], above 100 µM; in test [10] it was above 100 µM; in test [5] it was 96.7 µM. Also, the TGI in [6] was 54.2 µM.
Take `CCCCCCCCCCCCCCCc1ccc(OCC(O)CO)cc1` (stereo unspecified): the TGI was above 100 µM in test [1]; 49.9 µM in test [8]; above 100 µM in test [2]; 85 µM in test [3]; 47.8 µM in test [9]; 46.1 µM in [4]. Besides, the TGI was 35.2 µM in test [5], 72.7 µM in test [6] and 62.2 µM in test [7].
With `N#Cc1c(NC(=S)Nc2ccc(Cl)cc2)sc2c1CCCC2`, the TGI in [8], in [2], in [3], in test [4], in test [5] and in [6] was above 100 µM in each case. In addition, the TGI in [7] was above 100 µM.
With `Nc1cc2c(nnn2C2OC(COCc3ccccc3)C(OCc3ccccc3)C2OCc2ccccc2)c(=O)[nH]1` (stereo unspecified), the TGI in test [1] is above 100 µM; in [2] it was above 100 µM; in [3] it was 28.1 µM; in test [9], above 100 µM; in test [10] it was above 100 µM; in test [4], 41.8 µM. The TGI in test [5], in [6] and in test [7] was above 100 µM throughout.
In the case of `CC(C)CCC[C@@H](C)[C@H]1CC[C@H]2[C@@H]3CC[C@H]4C[C@H](N)CC[C@]4(C)[C@H]3CC[C@]12C`, the TGI was 8.5 µM in [1]; 64 µM in test [8]; 96.2 µM in test [2]; 68.6 µM in test [3]; 34.6 µM in test [9]; 76.3 µM in test [10]. Moreover, the TGI in test [4] was 54.3 µM; in test [5], above 100 µM; in test [6], 86.4 µM; in test [7], 95 µM.
Regarding `CS(=O)(=O)OC1CN2CCC1CC2` (stereo unspecified), the TGI in test [1], in [2], in test [3], in [9], in [10] and in test [4] was above 100 µM in each case. In addition, the TGI in test [5], in test [6] and in test [7] was above 100 µM in each case.
As to `O=C(C[C@H](NC(=O)OCc1ccccc1)C(=O)NC1Cc2ccccc2OC1=O)OCc1ccccc1` (stereo partly specified), the TGI in test [1] is above 100 µM; in test [8] it was 66.5 µM; in test [2] it was above 100 µM; in test [9], above 100 µM; in [10], above 100 µM; in test [5], above 100 µM. For the same molecule, the TGI in [6] and in [7] was above 100 µM each time.

For the origin of these results see PubChem BioAssay (NCI).
